Structures can show the parent of a compound that is named as a salt.
Tests used:
[1] = Hemolysis assay (stability of erythrocytes); type: cell-based, human; settings: male, human, heparinized whole blood diluted with saline (erythrocytes)
Protocol: Heparinized whole blood was used from a healthy volunteer. The whole blood (10 mL) was diluted with saline solution (90 mL). For each UV-Vis measurement, 2.5 mL of diluted blood was used. For each blood sample, 1 mL of a saline solution containing hydrochlorides 1–8 at concentrations of 5, 50, and 500 mg/L was added. As a control were used blood samples with the addition of 1% solution of DMSO in saline and 1% solution of SDS in saline. In all cases, the measurements were repeated twice for each concentration. […] The cells were centrifuged, and the absorbance of the supernatant, which contained plasma and lysed erythrocytes, was measured at 540 nm. The percentage of lysis was calculated from a standard curve of lysed erythrocytes treated with SDS [52].

human blood plasma [2] = experiment: Clot formation and fibrinolysis (CFF) assay; type: biochemical; settings: for Amax (maximum of fibrin clot absorbance at 360 nm) / VmaxC (of Fibrin Polymerization) / VmaxF (of Fibrin Clot Lysis): control plasma assumed as 100%, mean ± SD, n = 5–7
Source text: The CFF assay enables analysis of both the blood plasma coagulation process and fibrinolysis efficiency. The thrombin enzyme in the reagent mixture initiates blood plasma fibrinogen polymerization, leading to an increase in absorbance in the sample until the maximal absorbance (Amax) is attained. The fibrinolytic activity of blood plasma is induced by the tissue-type plasminogen activator (t-PA). The activation of fibrinolysis in the tested samples leads to fibrin clot degradation and decreases the absorbance to the baseline.
Figure 11 An exemplary curve of blood plasma coagulation and clot lysis recorded during the clot formation and fibrinolysis (CFF) assay. The first step in the CFF test involves activation of the blood plasma coagulation cascade and fibrin clot formation (1). It is characterized by the maximal velocity of the fibrin polymerization parameter (VmaxC). The maximal absorbance (Amax) peak corresponds to the fibrin stabilization phase and is an indicator of fibrin clot thickness (2). The third step of the CFF assay covers the activation of fibrinolytic mechanisms and fibrin clot degradation (3) and is described by the maximal velocity of clot lysis (VmaxF).
Thrombin was purchased from BioMed (Lublin, Poland). A tissue-type plasminogen activator (Actilyse®) was purchased from Boehringer Ingelheim, Ingelheim am Rhein, Germany. Kinetic measurements were executed using a SpectrostarNano microplate spectrophotometer (BMG LabTech, Ortenberg, Germany).
Measurements were performed using a kinetic model, as described in our previous work. Briefly, blood plasma was preincubated with the examined substances (at final concentrations of 10, 25, and 50 mg/L) for 15 min at 37 °C. Then, 100 μL of blood plasma was added to microtiter plate wells, which was followed by 200 μL of the reagent mixture (0.75 U/mL thrombin, 225 ng/mL t-PA and 7.5 mM CaCl2) suspended in tris-buffered saline (0.05 M TBS, 0.9% NaCl; pH 7.4). Measurements of absorbance changes were started immediately and continued for 60 min at 37 °C, λ = 360 nm. The following parameters were used to determine the effects of the examined substances on the coagulation and fibrinolytic properties of the blood plasma: the maximal velocity of fibrinogen polymerization (VmaxC), which is an indicator of the plasma coagulation efficiency; the maximal absorbance (Amax), which is an indicator of the fibrin clot stabilization and its thickness; the maximal velocity of clot lysis (VmaxF), which is an indicator of blood plasma fibrinolytic activity.

human blood plasma [3] = experiment: Thrombin time (TT) clotting assay; type: biochemical
Protocol: (§1) Human blood plasma was isolated from fresh buffy coats (collected onto the citrate-dextrose solution—ACD) purchased from the Regional Centre of Blood Donation and Blood Treatment in Lodz, Poland. In the isolation procedure, the buffy coats (60 mL units) were divided into volumes of 10 mL and centrifuged (4000 rpm/15 min) in 15 mL tubes. Next, 1 mL solutions of each amide 1–8 were prepared in distilled water at concentrations of 10, 25, and 50 mg/L. Then, 450 μL of plasma and 50 μL of each amide at the tested concentrations were placed into 1.5 mL vials. The vials were vortexed (Vortex Biosan V-1 plus), incubated at 37 °C on a thermoblock (Dry Block Thermostat Biosan TDB-120), and analyzed using a Kselmed K-3002 OPTIC coagulometer (Grudziądz, Poland), based on the manufacturer’s protocols (described below). The control sample was native blood plasma, untreated with any of the examined substances.
Both 100 μL of control plasma and plasma samples treated with the amides were transferred to measuring cuvettes, which were placed in the thermoblock module (37 °C) of the coagulometer (KSELMED K-3002 Optic). Then, 100 μL of thrombin solution (4.5 U/mL, in 0.9% NaCl; Biomed, Lublin, Poland) was added to the cuvette. Measurements were started immediately.

human blood plasma [4] = experiment: Prothrombin time (PT) clotting assay; type: biochemical
Protocol: as §1
(§2) Fifty microliters of control plasma and plasma samples treated with the amides were transferred to measuring cuvettes and placed in the thermoblock module (37 °C) of a coagulometer (KSELMED, K-3002 Optic). Then, 100 μL of Dia-PT reagent (DIAGON Kft. Hungary; cat. no. 81100) was added. Measurements were started immediately.

human blood plasma [5] = experiment: Activated partial thromboplastin time (aPTT) clotting assay; type: biochemical
Protocol: as §1
as §2, with “of the” for “of a”, “Then, 50” for “Then, 100”, “of Dia-APTT” for “of Dia-PT”, “no. 72048) was added. The mixture was incubated for 180 s at 37 °C. Finally, 50 μL of reagent Dia-CaCl2 (DIAGON Kft. Hungary; cat. no. 41192)” for “no. 81100)”

## Cl.NCCCCCC(=O)NCc1ccc(C(=O)O)cc1 [Amide 2, 4-((6-Aminohexanamido)methyl)benzoic acid hydrochloride]
[1]; c 5 mg/L, 45 min
  hemolysis at 45 min, 5 mg/L: 0.41%
[1]; c 5 mg/L, 120 min
  hemolysis at 120 min, 5 mg/L: 0.21%
[1]; c 5 mg/L, 240 min
  hemolysis at 240 min, 5 mg/L: 0.65%
[1]; c 50 mg/L, 45 min
  hemolysis at 45 min, 50 mg/L: 0.11%
[1]; c 50 mg/L, 120 min
  hemolysis at 120 min, 50 mg/L: 0.74%
[1]; c 50 mg/L, 240 min
  hemolysis at 240 min, 50 mg/L: 0.3%
[1]; c 500 mg/L, 45 min
  hemolysis at 45 min, 500 mg/L: 1.03%
[1]; c 500 mg/L, 120 min
  hemolysis at 120 min, 500 mg/L: 0.21%
[1]; c 500 mg/L, 240 min
  hemolysis at 240 min, 500 mg/L: 0.43%
Human blood plasma [2]; 10 mg/L
  Amax (maximum of fibrin clot absorbance at 360 nm): 105.29 ± 6.41%
  VmaxC (of Fibrin Polymerization): 103.26 ± 3.98%
  VmaxF (of Fibrin Clot Lysis): 75.81 ± 17.04 %
Human blood plasma [2]; 25 mg/L
  Amax (maximum of fibrin clot absorbance at 360 nm): 110.74 ± 4.86 %
  VmaxC (of Fibrin Polymerization): 106.30 ± 3.60 %
  VmaxF (of Fibrin Clot Lysis): 79.60 ± 10.55 %
Human blood plasma [2]; 50 mg/L
  Amax (maximum of fibrin clot absorbance at 360 nm): 110.77 ± 9.85 %
  VmaxC (of Fibrin Polymerization): 105.59 ± 3.74 %
  VmaxF (of Fibrin Clot Lysis): 85.69 ± 8.80 %
Human blood plasma [2]; tested at 10, 25, 50 mg/L
  effect on fibrin polymerization (VmaxC) in words: Mild pro-coagulant effects
Human blood plasma [3]; c 10 mg/L
  TT Time [% of Control]: 99.0 ± 1.8 % of Control
Human blood plasma [3]; c 25 mg/L
  TT Time [% of Control]: 98.9 ± 4.7 % of Control
Human blood plasma [3]; c 50 mg/L
  TT Time [% of Control]: 95.9 ± 6.8 % of Control
Human blood plasma [4]; c 10 mg/L
  PT Time [% of Control]: 97.0 ± 4.8 % of Control
Human blood plasma [4]; c 25 mg/L
  PT Time [% of Control]: 96.1 ± 2.2 % of Control
Human blood plasma [4]; c 50 mg/L
  PT Time [% of Control]: 95.5 ± 2.5 % of Control
Human blood plasma [4]; two higher concentrations (25 and 50 mg/L)
  prothrombin time, effect versus control in words: significantly decreased
Human blood plasma [5]; c 10 mg/L
  aPTT Time [% of Control]: 98.5 ± 8.0 % of Control
Human blood plasma [5]; c 25 mg/L
  aPTT Time [% of Control]: 101.0 ± 13.1 % of Control
Human blood plasma [5]; c 50 mg/L
  aPTT Time [% of Control]: 101.9 ± 14.0 % of Control
other
  melting point: 199 to 201 °C

## NCCCCCC(=O)NCC1CCC(C(=O)O)CC1 (stereo not shown) (as salt: hydrochloride) [Amide 3, 6-((((1s,4s)-4-Carboxycyclohexyl)methyl)amino)-6-oxohexan-1-aminium chloride]
other
  melting point: 195 to 197 °C
